This is an account of results in patent US6335339B1, “Triazine antiviral compounds” (Scriptgen Pharmaceuticals, Inc., priority 1998, dated 2002).

The test system of data set [1] is HBV. Nature of the data set: antiviral assay in 2.2.15 cells producing HBV (virion DNA dot blot). To be noted: extra-cellular virus reduced by 50%; 2.2.15 cells, 9 days treatment; read-out: Antiviral EC50. Format: cell-based, Hepatitis B virus. The essentials:
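2.2.15 cells (integrated HBV genome) were treated daily with compound at 4 concentrations for 9 days; medium harvested 24 h later and virion DNA quantified by dot-blot hybridization. EC50/EC90 are µM concentrations reducing extracellular virus by 50%/90%; cytotoxicity by neutral red uptake, CC50 as 50% cell death.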

Data set [2] has as its system 2.2.15 cells. Nature of the data set: neutral red dye uptake cytotoxicity. Format: cell-based. To be noted: 9 days treatment, read-out: 50% Cell Death CC50. The essentials: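 Confluent 2.2.15 cultures, same conditions as antiviral assay, treated daily for 9 days with 4 concentrations (3.3-fold dilutions), triplicate wells. 24 hours after the final dose, cells stained 30 minutes with 0.01% neutral red, dye extracted and A510 read; values as % of untreated cultures, CC50 as 50% cell death.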

Structures are written as SMILES.

Turning to `Cc1ccc(Nc2nc(NCc3cc(F)ccc3F)nc(Nc3ccc([N+](=O)[O-])cc3)n2)cc1C` [Compound 248], the EC50 (commonly the concentration giving half of the maximal effect) in data set [1] was over 100 µM. Also, the CC50 (in general, the concentration at which the toxic effect on the cells reaches its halfway point) in data set [2] is 135 µM.
On the same counts, the results for `Cc1ccc(Nc2nc(NN=Cc3ccc(Cl)cc3)nc(N3CCOCC3)n2)cc1` [Compound 249] are over 100 µM and 134 µM.
On the same counts, the results for `Cc1ccc(Nc2nc(NNC(=O)c3ccccc3O)nc(Oc3ccc([N+](=O)[O-])cc3)n2)cc1C` [Compound 250] are over 100 µM and 123 µM.
On the same counts, the results for `Cc1ccc(Nc2nc(Nc3cccc(C(F)(F)F)c3)nc(N3CCOCC3)n2)cc1C` [Compound 251] are over 100 µM and 96 µM.
For `COc1ccc(Nc2nc(NCCc3ccccc3)nc(N(C)C)n2)cc1OC` [Compound 252], in data set [1], the EC50 stood at 9.5 µM. The cytotoxic concentration (CC50) in data set [2] was 61 µM.
On to `CNc1nc(NN=Cc2ccccc2C(F)(F)F)nc(Nc2cccc(C(F)(F)F)c2)n1` [Compound 253], for which, in data set [1], the concentration for a half-maximal effect (EC50) was determined as 18 µM. The CC50 in data set [2] was 193 µM.
